Key:
[1] = target: T1, SGLT1 (Homo sapiens, UniProt P13866); assay: hSGLT1 inhibitor activity experiment 2: 2-NBDG uptake by HEK293 cells stably expressing human SGLT1; format: cell-based; parameters: expressed in transfected cells; details: read-out: SGLT1 Inhibitory Activity
T1 sequence (P13866 1-664): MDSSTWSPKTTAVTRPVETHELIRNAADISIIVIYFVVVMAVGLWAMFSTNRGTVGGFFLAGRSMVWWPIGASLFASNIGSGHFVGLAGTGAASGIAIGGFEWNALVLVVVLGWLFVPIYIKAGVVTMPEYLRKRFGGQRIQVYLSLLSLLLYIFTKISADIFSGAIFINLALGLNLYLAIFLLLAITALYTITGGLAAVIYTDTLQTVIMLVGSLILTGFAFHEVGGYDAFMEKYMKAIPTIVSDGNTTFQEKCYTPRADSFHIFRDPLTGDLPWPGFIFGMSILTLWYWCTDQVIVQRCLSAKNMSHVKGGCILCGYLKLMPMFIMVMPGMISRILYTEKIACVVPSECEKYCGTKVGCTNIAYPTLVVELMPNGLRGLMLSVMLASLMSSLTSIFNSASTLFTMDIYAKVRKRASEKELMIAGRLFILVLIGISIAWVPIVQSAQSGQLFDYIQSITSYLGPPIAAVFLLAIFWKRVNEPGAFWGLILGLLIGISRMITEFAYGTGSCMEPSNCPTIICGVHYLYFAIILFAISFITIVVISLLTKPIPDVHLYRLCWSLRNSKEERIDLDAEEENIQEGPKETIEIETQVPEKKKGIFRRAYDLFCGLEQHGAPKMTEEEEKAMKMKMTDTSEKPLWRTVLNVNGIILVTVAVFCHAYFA
Experimental: Inhibitory activity testing was performed with reference to a similar method described in document [Acta Pharmaceutica Sinica 2017, 52 (6): 897-903; Nature Protocols (2007), 2(3), 753-762; Journal of Biochemical and Biophysical Methods (2005), 64(3), 207-215; Diabetes Technology & Therapeutics (2011), 13(7), 743-775].
In this experiment, the in vitro activity assay was evaluated using the uptake of 2-NBDG (2-Deoxy-2-[(7-nitro-2,1,3-benzoxadiazol-4-yl)amino]-D-glucose, CAS NO: 186689-07-6) by human embryonic kidney epithelial cells (HEK293, stably expressing human SGLT1), and the SGLT1 inhibitory activity of the target compound was determined by measuring its half-maximal inhibitory concentration (IC50).
HEK293 cells that can stably express human SGLT1 gene were inoculated into a 96-well clear-bottom black plate containing DMEM medium. The cells were incubated at 37° C., 5% CO2 in a cell incubator. The medium in the 96-well plate was aspirated, and the plate was treated with low-glucose serum-free DMEM medium, and washed once with non-specific uptake buffer and once with Na^+-dependent uptake buffer. Uptake buffer containing test compound was added to each well of cells, followed by uptake buffer containing 2-NBDG for glucose uptake, and the cell plate was incubated at 37° C., 5% CO2. The compounds were gradiently diluted. The uptake reaction was stopped by removing the culture medium, and after washing the cells with ice-cold uptake buffer, the washing solution was removed. The cells were lysed by adding NaOH, and the content of 2-NBDG in the cells was detected by a fluorescence microplate reader. The protein concentration of the lysate was measured by BCA method, the uptake of 2-NBDG was quantified by fluorescence intensity/protein content, and the obtained data were analyzed using GraphPad Prism to determine the median inhibitory concentration (IC50) of the compound to be tested. […]

[2] = Oral glucose tolerance test (OGTT) after continuous administration in rats for 14 days; format: in vivo, SD rats; details: for blood sugar level in OGTT: 0.009 mg/kg oral gavage for 14 days, OGTT on day 15; for loose stools: 0.009 mg/kg oral gavage, within 48 hours before and after the experiment
Experimental: • Experimental animals: SPF male SD rats; • Compound preparation: an appropriate amount of the compounds of Example 1, Example 3, and Example 4 were weighed, and uniformly suspended with an appropriate amount of 0.5% CMC-Na solution; • Preparation of glucose solution: an appropriate amount of glucose powder was weighed and dissolved with an appropriate amount of pure water; • Dosage and method of administration: 0.009 mg/kg, oral gavage.
Experimental process: the animals were fed a normal diet with consecutive administration for 14 days, and the glucose tolerance test was performed on day 15, blood glucose was detected before administration (−30 min), before giving glucose (0 min), and 10, 30, 60, and 120 min after giving glucose solution, and the defecation of animals was observed.

[3] = target: T1, SGLT1; assay: SGLT1 inhibitor activity experiment 1; format: cell-based
Experimental: The inhibitory activity of SGLT1 was tested with reference to the method described in document (Journal of Medicinal Chemistry 2017, 60, 710-721, Discovery of LX2761, a Sodium-Dependent Glucose Cotransporter 1 (SGLT1) Inhibitor Restricted to the Intestinal Lumen, for the Treatment of Diabetes).

[4] = Pharmacokinetic study in rats; format: in vivo, SD rats; details: 10 mg/kg oral gavage
Experimental: 5. Pharmacokinetic Study in Rats • Experimental animals: SPF male SD rats; • Dosage and method of administration: 10 mg/kg, oral gavage. • Research compound: Dapagliflozin, the compound of Example 4, the compound of Example 6, and the comparative compound 6; • Test method: Before administration (0), and 1, 4, 8, and 24 hours after administration, 0.2 ml of blood was collected from orbital venous plexus, anticoagulated with heparin, and plasma was collected.
Note: The comparative compound 6 is the compound numbered “6” in the document (Journal of Medicinal Chemistry 2017, 60, 710-721, Discovery of LX2761, a Sodium-Dependent Glucose Cotransporter 1 (SGLT1) Inhibitor Restricted to the Intestinal Lumen, for the Treatment of Diabetes). It was prepared and identified according to the synthetic method described in the document.

[5] = Lipid and water solubility of click-chemistry candidate compound compared with Example 4; format: physicochemical
Source text: The compound of Example 4, copper sulfate, and a cyclopropyl azide compound (refer to Chemische Berichte (1985), 118(4), 1564-1574; Science of Synthesis (2010), 41, 543-612; Nature (London, United Kingdom) (2019), 574(7776), 86-89) were stirred and reacted at room temperature, and after the reaction was completed, target compounds could be prepared by silica gel column chromatography. Rf: 0.16 (dichloromethane:methanol=10:1).

| IC50 [1] [nM] | IC50 [3] [nM] | SMILES | other results |
| --- | --- | --- | --- |
| 0.83 |  | CS[C@H]1O[C@@H](c2ccc(C)c(Cc3ccc(CCCC(=O)NC(C)(C)C(=O)NCCN(C)Cc4ccccc4)cc3)c2)[C@H](O)[C@@H](O)[C@@H]1O [Example 3] | blood sugar level in OGTT [2]: significantly reduce the blood sugar level of rats; loose stools [2]: no loose stools were observed |
| 1.27 |  | CS[C@H]1O[C@@H](c2ccc(C)c(Cc3ccc(CCCC(=O)NC(C)(C)C(=O)NCCN4CCN(C)CC4)cc3)c2)[C@H](O)[C@@H](O)[C@@H]1O [Example 2] |  |
|  | < 50 | C#CCN(C)CCNC(=O)C(C)(C)NC(=O)CCOCc1ccc(Cc2cc([C@@H]3O[C@H](SC)[C@@H](O)[C@H](O)[C@H]3O)ccc2C)cc1 [Example 6] | drug concentration in plasma [4]: did not reach the detection limit |
| 0.67 |  | CS[C@H]1O[C@@H](c2ccc(C)c(Cc3ccc(CCCC(=O)NC(C)(C)C(=O)NCCN4CCCC4)cc3)c2)[C@H](O)[C@@H](O)[C@@H]1O [Example 1] | blood sugar level in OGTT [2]: significantly reduce the blood sugar level of rats; loose stools [2]: no loose stools were observed |

The remaining lines, values behind:

| SMILES | IC50 [1] [nM] | IC50 [3] [nM] | other results |
| --- | --- | --- | --- |
| C#CCN(C)CCNC(=O)C(C)(C)NC(=O)CCOc1ccc(Cc2cc([C@@H]3O[C@H](SC)[C@@H](O)[C@H](O)[C@H]3O)ccc2C)cc1 [Example 5] |  | < 50 |  |
| C#CCN(C)CCNC(=O)C(C)(C)NC(=O)CCOc1ccc(Cc2cc([C@@H]3O[C@H](SC)[C@@H](O)[C@H](O)[C@H]3O)ccc2C#C)cc1 [Example 8] |  | < 50 |  |
| C#CCN(C)CCNC(=O)C(C)(C)NC(=O)C/C=C/c1ccc(Cc2cc([C@@H]3O[C@H](SC)[C@@H](O)[C@H](O)[C@H]3O)ccc2C)cc1 [Example 7] |  | < 50 |  |
| CS[C@H]1O[C@@H](c2ccc(C)c(Cc3ccc(CCCC(=O)NC(C)(C)C(=O)NCCN(C)Cc4cn(C5CC5)nn4)cc3)c2)[C@H](O)[C@@H](O)[C@@H]1O |  |  | lipid solubility compared with Example 4 [5]: better; water solubility compared with Example 4 [5]: better |
